Assay [1] has as its system alpha-2 adrenergic receptors. To be noted: background statement; cited from earlier work.
For assay [2], the system named is alpha adrenergic receptors. To be noted: background statement; cited from earlier work.
Assay [3] has as its target T1, receptor sites of clonidine (rat cortex membranes) (Rattus norvegicus, UniProt P22909).
T1 construct: measured on rat cortex membranes; from tissue; host or cells: rat cortex membranes
T1 sequence (P22909 1-465): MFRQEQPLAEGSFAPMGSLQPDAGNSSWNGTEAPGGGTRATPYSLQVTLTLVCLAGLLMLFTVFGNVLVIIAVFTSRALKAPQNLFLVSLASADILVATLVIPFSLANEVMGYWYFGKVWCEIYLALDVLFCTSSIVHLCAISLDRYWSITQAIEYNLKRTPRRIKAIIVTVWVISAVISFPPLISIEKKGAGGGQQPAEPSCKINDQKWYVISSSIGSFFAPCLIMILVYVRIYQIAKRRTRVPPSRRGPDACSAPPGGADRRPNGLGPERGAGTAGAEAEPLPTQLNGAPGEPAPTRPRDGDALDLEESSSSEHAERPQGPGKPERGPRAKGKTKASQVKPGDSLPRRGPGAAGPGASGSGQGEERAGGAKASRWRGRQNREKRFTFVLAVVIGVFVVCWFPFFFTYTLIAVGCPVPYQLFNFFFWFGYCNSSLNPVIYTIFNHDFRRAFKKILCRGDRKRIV
The assay can be described thus: Affinity for the receptor sites of clonidine (3H clonidine binding, rat cortex membranes).

Read-outs that look alike come from different tables or passages of the source.

Take `Clc1cccc(Cl)c1N=C1NCCN1` [Clonidine, clonidine]: the “affinity for alpha-2 receptors” value in assay [1] is “strong affinity”. The “behaviour towards alpha adrenergic receptors” value in assay [2] is on record as “behaves as an agonist towards alpha adrenergic receptors”.

As a reminder, the Ki is a dissociation constant, usually derived from enzyme kinetics or from competition with a known ligand. Compound `CN1CCN(c2nc(N)c(Cl)c(Cl)n2)CC1` [Example 8, 2-N-methylpiperazino-4-amino-5,6-dichloropyrimidine] showed an inhibitory constant (Ki) in assay [3] of 51 nM.

Regarding `CNc1nc(N2CCN(C)CC2)nc(Cl)c1Cl` [Example 9, 2-N-methylpiperazino-4-methylamino-5,6-dichloro-pyrimidine], the Ki in assay [3] amounted to 44 nM.

In assay [3], `CC(C)Nc1nc(N2CCN(C)CC2)nc(Cl)c1Cl` [Example 10, 2-N-methylpiperazino-4-isopropylamino-5,6-dichloropyrimidine] showed a Ki of 5 nM.

As for `COc1c(Cl)nc(N2CCN(C)CC2)nc1NC(C)C` [Example 12, 2-N-methylpiperazino-4-isopropylamino-5-methoxy-6-chloropyrimidine], the inhibition constant Ki in assay [3] (read-out: Ki) came out at 51 nM.

Turning to `Cc1c(Cl)nc(N2CCN(C)CC2)nc1NC(C)C` [Example 21, 2-N-methylpiperazino-4-isopropylamino-5-methyl-6-chloropyrimidine], the Ki in assay [3] is 16 nM.

For `CCc1c(Cl)nc(N2CCN(C)CC2)nc1NC(C)C` [Example 25, 2-N-methylpiperazino-4-isopropylamino-5-ethyl-6-chloropyrimidine], the inhibition constant (Ki) in assay [3] (read-out: Ki) was 51 nM.
